The values that follow come from US6841530B2, “Semi-synthetic studies toward didemnin analogues” (The Board of Trustees of the University of Illinois, priority 1996, dated 2005).

The nature of data set [1]: Cytotoxicity of didemnins (Table II). In kind it is cell-based. To be noted: for IC50: cytotoxicity.
The test system of data set [2] is HSV. Briefly: Antiviral activities of didemnins, HSV/CV-1. On the set-up: key: +++ = complete inhibition; ++ = strong inhibition; + = moderate inhibition; − = no inhibition. In kind it is cell-based.
Data set [3] has as its system CV-1. Briefly: Cytotoxicity score in the HSV/CV-1 antiviral assay. Particulars: scale 0 (least toxic) to 16 (toxic).

Values after ≈ are worked out from the molar mass of the structure shown. Starred links: 1 amine or outer side, 2 acyl side, 3 side chain; linkers in the order of their positions; H or OH if unused. Positions of bridges follow the written chain, without caps; N, C: chain ends. Non-standard residues stand in square brackets, D forms with d. Residues, ends and D or L forms follow the SMILES beside them. *: point of attachment. X1 = CC[C@H](C)[C@@H](N[*:1])[C@@H](O)CC(=O)O[C@H](C(=O)[C@H](C)C(=O)[*:2])C(C)C; NMeY = CN[C@@H](Cc1ccc(O)cc1)C(=O)O; dNMeL = CN[C@H](CC(C)C)C(=O)O; pGlu = O=C1CC[C@@H](C(=O)O)N1; Pyruvoyl = CC(=O)C(=O)*; Cbz = O=C(OCc1ccccc1)*; Boc = CC(C)(C)OC(=O)*; Lac = C[C@H](O)C(=O)O

As to `CC[C@H](C)[C@H]1NC(=O)[C@@H](NC(=O)[C@@H](CC(C)C)N(C)C(=O)[C@@H]2CCCN2C(=O)OC(C)(C)C)[C@@H](C)OC(=O)[C@H](Cc2ccc(OC)cc2)N(C)C(=O)[C@@H]2CCCN2C(=O)[C@H](CC(C)C)NC(=O)[C@@H](C)C(=O)[C@H](C(C)C)OC(=O)C[C@@H]1O` [Boc-Pro-didemnin A (158), Boc-L-prolyl-didemnin A] (Boc-P[dNMeL]T[X1]LP[NMeY](Me); ester 3-C), the “Inhibition (%)” value in data set [1] (Dose 0.25 ng/mL) is given as 0%; in data set [1] (Dose 2.5 ng/mL), 0%; in data set [1] (Dose 25 ng/mL), 55%; in data set [1] (Dose 250 ng/mL), 100%. This molecule also registered an IC50 in data set [1] of 0.085 µg/mL (≈ 0.0745 µM).
Regarding `CC[C@H](C)[C@H]1NC(=O)[C@@H](NC(=O)[C@@H](CC(C)C)N(C)C(=O)[C@@H]2CCCN2C(=O)[C@H](C)OC(=O)[C@H](CCC(N)=O)NC(=O)OCc2ccccc2)[C@@H](C)OC(=O)[C@H](Cc2ccc(OC)cc2)N(C)C(=O)[C@@H]2CCCN2C(=O)[C@H](CC(C)C)NC(=O)[C@@H](C)C(=O)[C@H](C(C)C)OC(=O)C[C@@H]1O` [Cbz-Gln-Didemnin B (161), N-Benzyloxycarbonyl-L-glutaminyl-didemnin B] (Cbz-Q[Lac]P[dNMeL]T[X1]LP[NMeY](Me); ester 5-C), the Activity entry is on record as “−” in data set [2] (10 ng/mL), “+” in data set [2] (20 ng/mL), “+” in data set [2] (50 ng/mL) and “+” in data set [2] (100 ng/mL). The “Inhibition (%)” value in data set [1] (Dose 0.25 ng/mL) turned out to be 0%; in data set [1] (Dose 2.5 ng/mL), 0%; in data set [1] (Dose 25 ng/mL), 87%; in data set [1] (Dose 250 ng/mL), 100%. The molecule further had a concentration for half-maximal inhibition (IC50) in data set [1] of 0.025 µg/mL (≈ 0.0182 µM). For the same molecule, the Cytotoxocity in data set [3] (10 ng/mL), in data set [3] (20 ng/mL), in data set [3] (50 ng/mL) and in data set [3] (100 ng/mL) was 0 in each case.
With `CC[C@H](C)[C@H]1NC(=O)[C@@H](NC(=O)[C@@H](CC(C)C)N(C)C(=O)[C@@H]2CCCN2C(=O)[C@H](C)OC(=O)[C@H](CCC(N)=O)NC(=O)OCc2ccccc2)[C@@H](C)OC(=O)[C@H](Cc2ccc(OC)cc2)N(C)C(=O)[C@@H]2CCCN2C(=O)[C@H](CC(C)C)NC(=O)[C@@H](C)C(=O)[C@H](C(C)C)OC(=O)C[C@@H]1OC(=O)[C@H](CCC(N)=O)NC(=O)OCc1ccccc1` [Cbz-Gln[Cbz-GlnIst^2]DB (162), di-(benzyloxycarbonyl)glutaminyl-didemnin B], the Activity entry was “+” in data set [2] (10 ng/mL), “+” in data set [2] (20 ng/mL), “+” in data set [2] (50 ng/mL) and “+++” in data set [2] (100 ng/mL). In addition, the “Inhibition (%)” value in data set [1] (Dose 0.25 ng/mL) worked out at 0%; in data set [1] (Dose 2.5 ng/mL), 0%; in data set [1] (Dose 25 ng/mL), 87%; in data set [1] (Dose 250 ng/mL), 99%. The IC50 in data set [1] turned out to be 0.05 µg/mL (≈ 0.0305 µM). For the same molecule, the Cytotoxocity in data set [3] (10 ng/mL), in data set [3] (20 ng/mL), in data set [3] (50 ng/mL) and in data set [3] (100 ng/mL) was 0 in each case.
Turning to `CC[C@H](C)[C@H]1NC(=O)[C@@H](NC(=O)[C@@H](CC(C)C)N(C)C(=O)[C@@H]2CCCN2C(=O)[C@H](C)OC(=O)[C@@H]2CCC(=O)N2C(=O)OCc2ccccc2)[C@@H](C)OC(=O)[C@H](Cc2ccc(OC)cc2)N(C)C(=O)[C@@H]2CCCN2C(=O)[C@H](CC(C)C)NC(=O)[C@@H](C)C(=O)[C@H](C(C)C)OC(=O)C[C@@H]1O` [Cbz-pGlu-Didemnin B (145), N-Benzyloxycarbonyl-L-pyroglutaminyl-didemnin B], the Activity entry in data set [2] (10 ng/mL) was “−”; in data set [2] (20 ng/mL), “+”; in data set [2] (50 ng/mL), “+”; in data set [2] (100 ng/mL), “+”. The “Inhibition (%)” value is given as 0% in data set [1] (Dose 0.25 ng/mL), 0% in data set [1] (Dose 2.5 ng/mL), 70% in data set [1] (Dose 25 ng/mL) and 100% in data set [1] (Dose 250 ng/mL). This molecule had an IC50 in data set [1] of 0.05 µg/mL (≈ 0.0368 µM). The Cytotoxocity in data set [3] (10 ng/mL), in data set [3] (20 ng/mL), in data set [3] (50 ng/mL) and in data set [3] (100 ng/mL) was 0 throughout.
Regarding `CC[C@H](C)[C@H]1NC(=O)[C@@H](NC(=O)[C@@H](CC(C)C)N(C)C(=O)[C@@H]2CCCN2C(=O)C(C)=O)[C@@H](C)OC(=O)[C@H](Cc2ccc(OC)cc2)N(C)C(=O)[C@@H]2CCCN2C(=O)[C@H](CC(C)C)NC(=O)[C@@H](C)C(=O)[C@H](C(C)C)OC(=O)C[C@@H]1O` [Dehydrodidemnin B (6), Dehydrodidemnin B] (Pyruvoyl-P[dNMeL]T[X1]LP[NMeY](Me); ester 3-C), the values for the Activity result in data set [2] (10 ng/mL) and in data set [2] (20 ng/mL) were “+” and “+++”, respectively. Further, the “Inhibition (%)” value in data set [1] (Dose 0.25 ng/mL) is 95%; in data set [1] (Dose 2.5 ng/mL), 100%; in data set [1] (Dose 25 ng/mL), 100%; in data set [1] (Dose 250 ng/mL), 100%. For the same molecule, in data set [1], the IC50 worked out at 0.0002 µg/mL (≈ 0.00018 µM). Moreover, the Cytotoxocity in data set [3] (10 ng/mL) came out at 0; in data set [3] (20 ng/mL), 0; in data set [3] (50 ng/mL), 16; in data set [3] (100 ng/mL), 16.
With `CC[C@H](C)[C@H]1NC(=O)[C@@H](NC(=O)[C@@H](CC(C)C)N(C)C(=O)[C@@H]2CCCN2C(=O)C(C)O)[C@@H](C)OC(=O)[C@H](Cc2ccc(OC)cc2)N(C)C(=O)[C@@H]2CCCN2C(=O)[C@H](CC(C)C)NC(=O)[C@@H](C)C(=O)[C@H](C(C)C)OC(=O)C[C@@H]1O` (stereo partly shown) [Didemnin (B) (2), Didemnin B, reference compound], the Activity entry in data set [2] (10 ng/mL) is listed as “+”; in data set [2] (20 ng/mL), “+++”; in data set [2] (50 ng/mL), “+++”. In addition, the “Inhibition (%)” value is 0% in data set [1] (Dose 0.25 ng/mL), 40% in data set [1] (Dose 2.5 ng/mL), 100% in data set [1] (Dose 25 ng/mL) and 100% in data set [1] (Dose 250 ng/mL). In data set [1], the IC50 is 0.007 µg/mL (≈ 0.00629 µM). Also, the Cytotoxocity amounted to 0 in data set [3] (10 ng/mL), 0 in data set [3] (20 ng/mL), 0 in data set [3] (50 ng/mL) and 16 in data set [3] (100 ng/mL).
Take `CC[C@H](C)[C@H]1NC(=O)[C@@H](NC(=O)[C@@H](CC(C)C)NC)[C@@H](C)OC(=O)[C@H](Cc2ccc(OC)cc2)N(C)C(=O)[C@@H]2CCCN2C(=O)[C@H](CC(C)C)NC(=O)[C@@H](C)C(=O)[C@H](C(C)C)OC(=O)C[C@@H]1O` [Didemnin A (1), Didemnin A] (H-[dNMeL]T[X1]LP[NMeY](Me); ester 2-C): the Activity result in data set [2] (10 ng/mL) is “−”; in data set [2] (20 ng/mL), “+”; in data set [2] (50 ng/mL), “+”; in data set [2] (100 ng/mL) it was “+”. Further, the “Inhibition (%)” value is listed as 0% in data set [1] (Dose 0.25 ng/mL), 0% in data set [1] (Dose 2.5 ng/mL), 70% in data set [1] (Dose 25 ng/mL) and 100% in data set [1] (Dose 250 ng/mL). Besides, in data set [1], the IC50 stood at 0.075 µg/mL (≈ 0.0795 µM). Also, the Cytotoxocity in data set [3] (10 ng/mL), in data set [3] (20 ng/mL), in data set [3] (50 ng/mL) and in data set [3] (100 ng/mL) was 0 each time.
Take `CC[C@H](C)[C@H]1NC(=O)[C@@H](NC(=O)[C@@H](CC(C)C)N(C)C(=O)[C@@H]2CCCN2C(=O)[C@H](C)OC(=O)[C@H](CCC(N)=O)NC(=O)[C@@H]2CCC(=O)N2)[C@@H](C)OC(=O)[C@H](Cc2ccc(OC)cc2)N(C)C(=O)[C@@H]2CCCN2C(=O)[C@H](CC(C)C)NC(=O)[C@@H](C)C(=O)[C@H](C(C)C)OC(=O)C[C@@H]1O` [Didemnin M (5), L-Pyroglutaminyl-L-glutaminyl-didemnin B] ([pGlu]Q[Lac]P[dNMeL]T[X1]LP[NMeY](Me); ester 6-C): the Activity result in data set [2] (10 ng/mL) was “+”; in data set [2] (20 ng/mL) it was “+++”. Further, the “Inhibition (%)” value in data set [1] (Dose 0.25 ng/mL) was 94%; in data set [1] (Dose 2.5 ng/mL), 100%; in data set [1] (Dose 25 ng/mL), 100%; in data set [1] (Dose 250 ng/mL), 100%. Moreover, the IC50 in data set [1] amounted to 0.0008 µg/mL (≈ 0.000592 µM). For the same molecule, the Cytotoxocity in data set [3] (10 ng/mL) came to 0; in data set [3] (20 ng/mL) it was 0; in data set [3] (50 ng/mL) it was 16; in data set [3] (100 ng/mL), 16.
`CC[C@H](C)[C@H]1NC(=O)[C@@H](NC(=O)[C@@H](CC(C)C)N(C)C(=O)[C@@H]2CCCN2C(=O)[C@H](C)OC(=O)[C@@H](N)CCC(N)=O)[C@@H](C)OC(=O)[C@H](Cc2ccc(OC)cc2)N(C)C(=O)[C@@H]2CCCN2C(=O)[C@H](CC(C)C)NC(=O)[C@@H](C)C(=O)[C@H](C(C)C)OC(=O)C[C@@H]1OC(=O)[C@@H](N)CCC(N)=O` [Gln[GlnIst^2]-Didemnin B (160), Glutaminyl-glutaminyl-didemnin B]: the Activity entry in data set [2] (10 ng/mL) is “+”; in data set [2] (20 ng/mL) it was “+”; in data set [2] (50 ng/mL) it was “+”; in data set [2] (100 ng/mL), “+++”. Moreover, the “Inhibition (%)” value in data set [1] (Dose 0.25 ng/mL) stood at 0%; in data set [1] (Dose 2.5 ng/mL), 0%; in data set [1] (Dose 25 ng/mL) it was 87%; in data set [1] (Dose 250 ng/mL) it was 100%. Also, the concentration for half-maximal inhibition (IC50) in data set [1] was found to be 0.05 µg/mL (≈ 0.0365 µM). The Cytotoxocity in data set [3] (10 ng/mL), in data set [3] (20 ng/mL), in data set [3] (50 ng/mL) and in data set [3] (100 ng/mL) was 0 throughout.
`CC[C@H](C)[C@H]1NC(=O)[C@@H](NC(=O)[C@@H](CC(C)C)N(C)C(=O)[C@@H]2CCCN2)[C@@H](C)OC(=O)[C@H](Cc2ccc(OC)cc2)N(C)C(=O)[C@@H]2CCCN2C(=O)[C@H](CC(C)C)NC(=O)[C@@H](C)C(=O)[C@H](C(C)C)OC(=O)C[C@@H]1O` [Prolyl-didemnin A (43), prolyl-didemnin A] (H-P[dNMeL]T[X1]LP[NMeY](Me); ester 3-C): the “Inhibition (%)” value amounted to 30% in data set [1] (Dose 0.25 ng/mL), 40% in data set [1] (Dose 2.5 ng/mL), 99% in data set [1] (Dose 25 ng/mL) and 100% in data set [1] (Dose 250 ng/mL). Moreover, the half-maximal inhibitory concentration (IC50) in data set [1] is 0.012 µg/mL (≈ 0.0115 µM).
